{"source": "patent US20240317741A1", "about": "“NAPHTHYRIDINE DERIVATIVE AS ATR INHIBITOR AND METHOD FOR PREPARING SAME” (WIGEN BIOMEDICINE TECHNOLOGY (SHANGHAI) CO., LTD., priority 2021, published 2024)"}
{"test_system": "MIA PaCa-2 cells", "assay": "In-vitro anti-proliferative activity against MIA PaCa-2 cells", "type": "cell-based", "conditions": "Homo sapiens, 72 h after dosing, intracellular ATP content", "method": "MIA PaCa-2 cells were seeded on a 384-well plate at 3000 cells/well. After overnight adherence culture, DMSO or the compounds serially diluted 1:5 from 5 μM were added. […] The inhibition percentage of viable cells by the compounds was calculated by comparing with the DMSO group, and the IC50 value was calculated.", "units": {"IC50": "µM"}}
{"smiles": "COCCN1CCC(C#N)(c2cc(N3CCOC[C@H]3C)nc3c(-c4ccn[nH]4)nccc23)CC1", "note": "[Compound 75]", "IC50": "< 1"}
{"smiles": "C[C@@H]1COCCN1c1cc(C2(C#N)CCN(C3COC3)CC2)c2ccnc(-c3ccn[nH]3)c2n1", "note": "[Compound 70]", "IC50": "< 1"}
{"smiles": "CCOP(=O)(CCN1CCC(C#N)(c2cc(N3CCOC[C@H]3C)nc3c(-c4ccn[nH]4)nccc23)CC1)OCC", "note": "[Compound 81]", "IC50": "< 1"}
{"smiles": "CCN1CCC(C#N)(c2cc(N3CCOC[C@H]3C)nc3c(-c4ccn[nH]4)nccc23)CC1", "note": "[Compound 66]", "IC50": "< 1"}
{"smiles": "C[C@@H]1COCCN1c1cc(C2(C#N)CCCCCC2)c2ccnc(-c3ccn[nH]3)c2n1", "note": "[Compound 31]", "IC50": "< 1"}
{"smiles": "C[C@@H]1COCCN1c1cc(C2(C#N)CC3CCC(C2)O3)c2ccnc(-c3ccn[nH]3)c2n1", "note": "(stereo partly drawn) [Compound 85, 3-(2-((R)-3-methylmorpholino)-8-(1H-pyrazol-5-yl)-1,7-naphthyridin-4-yl)-8-oxabicyclo[3.2.1]octane-3-carbonitrile]", "IC50": "< 1"}
{"smiles": "C[C@@H]1COCCN1c1cc(C2(C#N)CCN(CC3CCC3)CC2)c2ccnc(-c3ccn[nH]3)c2n1", "note": "[Compound 83]", "IC50": "< 1"}
{"smiles": "C[C@@H]1COCCN1c1cc(C2(C#N)CCN(c3ccc(F)cn3)CC2)c2ccnc(-c3ccn[nH]3)c2n1", "note": "[Compound 47]", "IC50": "1 to 5"}
{"smiles": "C[C@@H]1COCCN1c1cc(C2(C#N)CCN(CC3CC3)CC2)c2ccnc(-c3ccn[nH]3)c2n1", "note": "[Compound 82]", "IC50": "< 1"}
{"smiles": "C[C@@H]1COCCN1c1cc(C2(C#N)CCC(OCC3CC3)CC2)c2ccnc(-c3ccn[nH]3)c2n1", "note": "(stereo partly shown) [Compound 56]", "IC50": "< 1"}
{"smiles": "CCOP(=O)(CCC(C#N)c1cc(N2CCOC[C@H]2C)nc2c(-c3ccn[nH]3)nccc12)OCC", "note": "(stereo partly shown) [Compound 12]", "IC50": "1 to 5"}
{"smiles": "C[C@@H]1COCCN1c1cc(C(C#N)C2CCCCC2)c2ccnc(-c3ccn[nH]3)c2n1", "note": "(stereo partly shown) [Compound 21]", "IC50": "1 to 5"}
{"smiles": "C[C@@H]1COCCN1c1cc(C2(C#N)CCN(c3ccc(Cl)cc3)CC2)c2ccnc(-c3ccn[nH]3)c2n1", "note": "[Compound 45, (R)-1-(4-chlorophenyl)-4-(2-(3-methylmorpholino)-8-(1H-pyrazol-5-yl)-1,7-naphthyridin-4-yl)piperidine-4-carbonitrile]", "IC50": "< 1"}
{"smiles": "C[C@@H]1COCCN1c1cc(C(C#N)C2CCC(N(C)C)CC2)c2ccnc(-c3ccn[nH]3)c2n1", "note": "(stereo partly shown) [Compound 23]", "IC50": "1 to 5"}
{"smiles": "C[C@@H]1COCCN1c1cc(C2(C#N)CCN(CC(N)=O)CC2)c2ccnc(-c3ccn[nH]3)c2n1", "note": "[Compound 76]", "IC50": "< 1"}
{"smiles": "CCOC1CCC(C#N)(c2cc(N3CCOC[C@H]3C)nc3c(-c4ccn[nH]4)nccc23)CC1", "note": "(stereo partly shown) [Compound 54]", "IC50": "< 1"}
{"smiles": "C[C@@H]1COCCN1c1cc(C2(C#N)CCN(CCS(C)(=O)=O)CC2)c2ccnc(-c3ccn[nH]3)c2n1", "note": "[Compound 80]", "IC50": "< 1"}
{"smiles": "C[C@@H]1COCCN1c1cc(C(C#N)C2CCC2)c2ccnc(-c3ccn[nH]3)c2n1", "note": "(stereo partly shown) [Compound 20]", "IC50": "> 5"}
{"smiles": "CC#CC(C#N)c1cc(N2CCOC[C@H]2C)nc2c(-c3ccn[nH]3)nccc12", "note": "(stereo partly shown) [Compound 8]", "IC50": "> 5"}
{"smiles": "C[C@@H]1COCCN1c1cc(CC#N)c2ccnc(-c3ccn[nH]3)c2n1", "note": "[Compound 1, (R)-2-(2-(3-methylmorpholino)-8-(1H-pyrazol-5-yl)-1,7-naphthyridin-4-yl)acetonitrile]", "IC50": "> 5"}
{"smiles": "C[C@@H]1COCCN1c1cc(C2(C#N)CCC3(CC2)CN(C)C3)c2ccnc(-c3ccn[nH]3)c2n1", "note": "[Compound 52]", "IC50": "< 1"}
{"smiles": "C[C@@H]1COCCN1c1cc(C(C#N)CCN(C)C)c2ccnc(-c3ccn[nH]3)c2n1", "note": "(stereo partly shown) [Compound 17]", "IC50": "1 to 5"}
{"smiles": "C[C@@H]1COCCN1c1cc(C2(C#N)CCN(c3ccccc3F)CC2)c2ccnc(-c3ccn[nH]3)c2n1", "note": "[Compound 49]", "IC50": "< 1"}
{"smiles": "C[C@@H]1COCCN1c1cc(C2(C#N)CCN(c3ccc(F)cc3)CC2)c2ccnc(-c3ccn[nH]3)c2n1", "note": "[Compound 50]", "IC50": "< 1"}
{"smiles": "C[C@@H]1COCCN1c1cc(C2(C#N)CCN(CCN(C)C)CC2)c2ccnc(-c3ccn[nH]3)c2n1", "note": "[Compound 78]", "IC50": "< 1"}
{"smiles": "C[C@@H]1COCCN1c1cc(C2(C#N)CCC(N3CCN(C)CC3)CC2)c2ccnc(-c3ccn[nH]3)c2n1", "note": "(stereo partly shown) [Compound 36]", "IC50": "< 1"}
{"smiles": "C[C@@H]1COCCN1c1cc(C2(C#N)CCC(OC3CCC3)CC2)c2ccnc(-c3ccn[nH]3)c2n1", "note": "(stereo partly shown) [Compound 58]", "IC50": "< 1"}
{"smiles": "C[C@@H]1COCCN1c1cc(C2(C#N)CCC(N3CCC3)CC2)c2ccnc(-c3ccn[nH]3)c2n1", "note": "(stereo partly shown) [Compound 63]", "IC50": "< 1"}
{"smiles": "CCC(C#N)c1cc(N2CCOC[C@H]2C)nc2c(-c3ccn[nH]3)nccc12", "note": "(stereo partly shown) [Compound 4]", "IC50": "> 5"}
{"smiles": "C[C@@H]1COCCN1c1cc(C(C)(C)C#N)c2ccnc(-c3ccn[nH]3)c2n1", "note": "[Compound 3, (R)-2-methyl-2-(2-(3-methylmorpholino)-8-(1H-pyrazol-5-yl)-1,7-naphthyridin-4-yl)propionitrile]", "IC50": "> 5"}
{"smiles": "C[C@@H]1COCCN1c1cc(C2(C#N)CCN(S(C)(=O)=O)CC2)c2ccnc(-c3ccn[nH]3)c2n1", "note": "[Compound 39]", "IC50": "1 to 5"}
{"smiles": "C[C@@H]1COCCN1c1cc(C2(C#N)CCC(N3CCCCC3)CC2)c2ccnc(-c3ccn[nH]3)c2n1", "note": "(stereo partly shown) [Compound 64]", "IC50": "< 1"}
{"smiles": "C[C@@H]1COCCN1c1cc(C2(C#N)CCN(C3CN(C)C3)CC2)c2ccnc(-c3ccn[nH]3)c2n1", "note": "[Compound 72]", "IC50": "< 1"}
{"smiles": "C[C@@H]1COCCN1c1cc(C(C#N)CCS(C)(=O)=O)c2ccnc(-c3ccn[nH]3)c2n1", "note": "(stereo partly shown) [Compound 15]", "IC50": "> 5"}
{"smiles": "C[C@@H]1COCCN1c1cc(C2(C#N)CCC2)c2ccnc(-c3ccn[nH]3)c2n1", "note": "[Compound 26]", "IC50": "1 to 5"}
{"smiles": "C[C@@H]1COCCN1c1cc(C2(C#N)CCC3(CC3)CC2)c2ccnc(-c3ccn[nH]3)c2n1", "note": "[Compound 32]", "IC50": "< 1"}
{"smiles": "C[C@@H]1COCCN1c1cc(C(C#N)CC2CC2)c2ccnc(-c3ccn[nH]3)c2n1", "note": "(stereo partly shown) [Compound 6]", "IC50": "1 to 5"}
{"smiles": "C[C@@H]1COCCN1c1cc(C2(C#N)CCC(N3CCOCC3)CC2)c2ccnc(-c3ccn[nH]3)c2n1", "note": "(stereo partly shown) [Compound 65]", "IC50": "< 1"}
{"smiles": "CC(C#N)c1cc(N2CCOC[C@H]2C)nc2c(-c3ccn[nH]3)nccc12", "note": "(stereo partly drawn) [Compound 2, 2-(2-((R)-3-methylmorpholino)-8-(1H-pyrazol-5-yl)-1,7-naphthyridin-4-yl)propionitrile]", "IC50": "> 5"}
{"smiles": "C[C@@H]1COCCN1c1cc(C(C#N)CCN2CCCC2)c2ccnc(-c3ccn[nH]3)c2n1", "note": "(stereo partly shown) [Compound 18]", "IC50": "1 to 5"}
{"smiles": "CC(=O)N1CCCC(C#N)(c2cc(N3CCOC[C@H]3C)nc3c(-c4ccn[nH]4)nccc23)C1", "note": "(stereo partly shown) [Compound 40]", "IC50": "> 5"}
{"smiles": "CC(C)C(C#N)c1cc(N2CCOC[C@H]2C)nc2c(-c3ccn[nH]3)nccc12", "note": "(stereo partly shown) [Compound 5]", "IC50": "1 to 5"}
{"smiles": "C[C@@H]1COCCN1c1cc(C2(C#N)CCN(C3CCN(C)CC3)CC2)c2ccnc(-c3ccn[nH]3)c2n1", "note": "[Compound 44]", "IC50": "< 1"}
{"smiles": "CC(=O)N1CCC(C#N)(c2cc(N3CCOC[C@H]3C)nc3c(-c4ccn[nH]4)nccc23)CC1", "note": "[Compound 38, (R)-1-acetyl-4-(2-(3-methylmorpholino)-8-(1H-pyrazol-5-yl)-1,7-naphthyridin-4-yl)piperidine-4-carbonitrile]", "IC50": "1 to 5"}
{"smiles": "C[C@@H]1COCCN1c1cc(C2(C#N)CCN(CC(=O)N(C)C)CC2)c2ccnc(-c3ccn[nH]3)c2n1", "note": "[Compound 77]", "IC50": "< 1"}
{"smiles": "C[C@@H]1COCCN1c1cc(C2(C#N)CCN(C3CC3)CC2)c2ccnc(-c3ccn[nH]3)c2n1", "note": "[Compound 46]", "IC50": "< 1"}
